According to patent US9855230B2 (ViiV Healthcare UK (No. 5) Limited, priority 2014, dated 2018):
Where two headings read alike, the source gives them in different places.

Key:
[1] = tested on: recombinant NL4-3 virus (nef section replaced with Renilla luciferase gene) in MT-2 cells; assay: whole plant or invertebrate; assay type: cell-based, HIV; settings: NL43, luciferase activity in MT-2 cells infected 4-5 days with recombinant NL4-3 virus
Excerpt: A recombinant NL4-3 proviral clone, in which a section of the nef gene was replaced with the Renilla luciferase gene, was used to make the reference virus used in these studies.
Supernatent was harvested after 2-3 days and the amount of virus present was titered in MT-2 cells using luciferase enzyme activity as a marker by measuring luciferase enzyme activity. Luciferase was quantitated using the EnduRen Live Cell Substrate from Promega (Madison, Wis.). Antiviral activities of compounds toward the recombinant virus were quantified by measuring luciferase activity in MT-2 cells infected for 4-5 days with the recombinant virus in the presence of serial dilutions of the compound.

[2] = Compound cytotoxicity (CC50), XTT-based colorimetric assay; assay type: cell-based; settings: human; uninfected MT2 cells, day 4, XTT assay
Procedure: Compound cytotoxicity and the corresponding CC50 values were determined using the same protocol as described in the antiviral assay except that uninfected cells were used. Cytotoxicity was assessed on day 4 in uninfected MT2 cells by using a XTT (2,3-bis[2-Methoxy-4-nitro-5-sulfophenyl]-2H-tetrazolium-5-carboxyanilide inner salt)-based colorimetric assay (Sigma-Aldrich, St Louis, Mo.).

| Structure (SMILES) | EC50 ([1]; read-out: Activity) [nM] | CC50 at 4 day [2] [nM] | EC50 ([1]; read-out: EC50) [nM] |
| --- | --- | --- | --- |
| COC(=O)Nc1ccc(-n2ccnc2[C@H](Cc2ccccc2)NC(=O)NS(=O)(=O)c2cc(Cl)sc2Cl)cc1 [Example 55, (S)-methyl (4-(2-(1-(3-((2,5-dichlorothiophen-3-yl)sulfonyl)ureido)-2-phenylethyl)-1H-imidazol-1-yl)phenyl)carbamate] | < 100 | > 100000 | – |
| COc1ccc(-n2ccnc2[C@H](Cc2ccccc2)NC(=O)NS(=O)(=O)c2cccc(Cl)c2Cl)cc1 [Example 56, (S)-2,3-dichloro-N-((1-(1-(4-methoxyphenyl)-1H-imidazol-2-yl)-2-phenylethyl)carbamoyl)benzenesulfonamide] | < 100 | > 100000 | – |
| CCOc1ccc(-n2ccnc2[C@H](Cc2ccccc2)NC(=O)NS(=O)(=O)c2cccc(Cl)c2Cl)cc1 [Example 57, (S)-2,3-dichloro-N-((1-(1-(4-ethoxyphenyl)-1H-imidazol-2-yl)-2-phenylethyl)carbamoyl)benzenesulfonamide] | < 100 | > 100000 | 30 |
| COc1ccc(-n2ccnc2[C@H](Cc2ccccc2)NC(=O)NS(=O)(=O)c2ccccc2F)cc1 [Example 58, (S)-2-fluoro-N-((1-(1-(4-methoxyphenyl)-1H-imidazol-2-yl)-2-phenylethyl)carbamoyl)benzenesulfonamide] | < 100 | > 33000 | – |
| Cc1ccccc1S(=O)(=O)NC(=O)N[C@@H](Cc1ccccc1)c1nccn1-c1ccc(-c2ccoc2)cc1 [Example 59, (S)-N-((1-(1-(4-(furan-3-yl)phenyl)-1H-imidazol-2-yl)-2-phenylethyl)carbamoyl)-2-methylbenzenesulfonamide] | < 100 | > 33000 | – |
| Cc1ccccc1S(=O)(=O)NC(=O)N[C@@H](Cc1ccccc1)c1nccn1-c1ccc(-c2ccsc2)cc1 [Example 60, (S)-2-methyl-N-((2-phenyl-1-(1-(4-(thiophen-3-yl)phenyl)-1H-imidazol-2-yl)ethyl)carbamoyl)benzenesulfonamide] | < 100 | > 100000 | 30 |
| Cc1ccccc1S(=O)(=O)NC(=O)N[C@@H](Cc1ccccc1)c1nccn1-c1ccc(-c2cnn(C)c2)cc1 [Example 61, (S)-2-methyl-N-((1-(1-(4-(1-methyl-1H-pyrazol-4-yl)phenyl)-1H-imidazol-2-yl)-2-phenylethyl)carbamoyl)benzenesulfonamide] | < 100 | > 33000 | – |
| Cc1ccccc1S(=O)(=O)NC(=O)N[C@@H](Cc1ccccc1)c1nccn1-c1ccc(-c2ccoc2C)cc1 [Example 62, (S)-2-methyl-N-((1-(1-(4-(2-methylfuran-3-yl)phenyl)-1H-imidazol-2-yl)-2-phenylethyl)carbamoyl)benzenesulfonamide] | < 100 | > 100000 | – |
| COc1ccc(-c2ccc(-n3ccnc3[C@H](Cc3ccccc3)NC(=O)NS(=O)(=O)c3ccccc3C)cc2)cn1 [Example 63, (S)-N-((1-(1-(4-(6-methoxypyridin-3-yl)phenyl)-1H-imidazol-2-yl)-2-phenylethyl)carbamoyl)-2-methylbenzenesulfonamide] | 100 to 1000 | > 100000 | 100 |
| O=C(N[C@@H](Cc1ccccc1)c1nccn1-c1ccc(-c2ccoc2)cc1)NS(=O)(=O)c1ccccc1F [Example 64, (S)-2-fluoro-N-((1-(1-(4-(furan-3-yl)phenyl)-1H-imidazol-2-yl)-2-phenylethyl)carbamoyl)benzenesulfonamide] | < 100 | > 100000 | – |
| Cc1ccccc1S(=O)(=O)NC(=O)N[C@@H](Cc1ccccc1)c1nccn1-c1cccc(-c2ccoc2)c1 [Example 65, (S)-N-((1-(1-(3-(furan-3-yl)phenyl)-1H-imidazol-2-yl)-2-phenylethyl)carbamoyl)-2-methylbenzenesulfonamide] | 100 to 1000 | > 100000 | – |
